The numbers were not newly measured in patent US6514993B1, “Serotonin 5-HT1A and dopamin D2 receptor ligands” (H. Lundbeck A/S, priority 1994, dated 2003), which cites them from elsewhere.

SMILES strings stand for the structures.

This data set concerns the target T1, 5-HT1A receptors (Rattus norvegicus, UniProt P19327).
T1 sequence (P19327 1-422): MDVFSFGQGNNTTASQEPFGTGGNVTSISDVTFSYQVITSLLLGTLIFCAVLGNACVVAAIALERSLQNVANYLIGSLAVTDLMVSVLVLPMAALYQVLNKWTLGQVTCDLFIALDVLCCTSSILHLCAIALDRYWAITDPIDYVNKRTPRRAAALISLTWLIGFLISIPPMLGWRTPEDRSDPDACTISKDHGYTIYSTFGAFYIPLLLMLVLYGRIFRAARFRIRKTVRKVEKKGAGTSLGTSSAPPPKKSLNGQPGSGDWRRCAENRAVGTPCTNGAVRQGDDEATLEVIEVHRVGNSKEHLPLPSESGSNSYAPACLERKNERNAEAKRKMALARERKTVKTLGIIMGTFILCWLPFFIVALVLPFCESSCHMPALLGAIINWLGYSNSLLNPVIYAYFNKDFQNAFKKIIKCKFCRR
More on the design: antagonist effects of a test compound on 5-HT1A receptors in vivo; from tissue; host or cells: whole animal (rat), in vivo behavioural test. The note with it: partial 5-HT1A agonists; cited from earlier work.

Regarding `O=C1CC2(CCCC2)CC(=O)N1CCCCN1CCN(c2ncccn2)CC1` [buspirone, 8-[4-[4-(2-pyrimidyl)-1-piperazinyl]butyl]-8-azaspiro[4,5]decane-7,9-dione], the “Inhibition of 5-MeO-DMT-induced 5-HT syndrome (general statement)” value is “inhibit the characteristic 5-HT syndrome produced by 5-MeO DMT”.
